Results: US12570662B2, “Substituted pyrrolo[1,2-b]pyridazines as bifunctional degraders of interleukin-1 receptor-associated kinases” (Nurix Therapeutics, Inc., priority 2021, dated 2026)
Like-named read-outs stand apart in the source and are kept apart here.

Target: T1, IRAK4 (Homo sapiens, UniProt Q9NWZ3)
T1 construct: C-terminal HiBiT-tagged Jurkat cells (polyclonal cell line or clone 8D5); endogenous in cells; host or cells: Jurkat cells (polyclonal cell line or clone 8D5), HiBiT-tagged
T1 sequence (Q9NWZ3 1-460): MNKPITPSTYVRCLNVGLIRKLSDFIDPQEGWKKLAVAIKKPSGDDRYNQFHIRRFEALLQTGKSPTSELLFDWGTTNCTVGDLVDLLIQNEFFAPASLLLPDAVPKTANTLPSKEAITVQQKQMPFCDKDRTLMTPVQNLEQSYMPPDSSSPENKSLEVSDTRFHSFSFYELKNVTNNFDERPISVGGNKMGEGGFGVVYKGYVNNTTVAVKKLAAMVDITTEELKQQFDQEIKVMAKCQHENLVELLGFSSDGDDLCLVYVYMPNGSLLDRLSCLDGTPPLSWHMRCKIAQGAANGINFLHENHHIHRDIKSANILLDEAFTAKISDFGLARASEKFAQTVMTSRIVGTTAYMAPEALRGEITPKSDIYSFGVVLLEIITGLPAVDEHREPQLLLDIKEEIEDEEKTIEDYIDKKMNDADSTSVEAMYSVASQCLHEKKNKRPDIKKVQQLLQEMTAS
Assay: IRAK4 Degradation HiBit Assay
Type: cell-based
Conditions: C-terminal HiBiT-tagged Jurkat cells, 4 hrs incubation; for DC50: % IRAK4 remaining, four-parameter fit (IC50 used as DC50); for Dmax: from fit of % IRAK4 remaining
In short: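 Degradation was quantified by luminescence after adding lytic detection reagent containing LgBiT to HiBiT-tagged Jurkat cells (polyclonal or clone 8D5). Cells were treated 4 h at 32 °C across 11 concentrations from 10 μM to 0.1 nM final. Four-parameter curve fitting of % IRAK4 remaining versus DMSO gave DC50 and Dmax.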

**Q.** How did the DC50 turn out when `N#Cc1cnn2c(-c3cc(NC4CCOCC4)c(-c4nnc(N5CC6CCC(C5)N6CC5[C@H]6CN(c7ccc([C@H]8CCC(=O)NC8=O)cn7)C[C@@H]56)s4)cn3)ccc2c1` (mixture of isomers) [Example 101, 7-{5-[5-(8-{[(1RS&,5SR&,6RS&)-3-{5-[(3RS)-2,6-dioxopiperidin-3-yl]pyridin-2-yl}-3-azabicyclo[3.1.0]hexan-6-yl]methyl}-3,8-diazabicyclo[3.2.1]octan-3-yl)-1,3,4-thiadiazol-2-yl]-4-[(oxan-4-yl)amino]pyridin-2-yl}pyrrolo[1,2-b]pyridazine-3-carbonitrile] was run?
**A.** 7 nM

**Q.** What about the Dmax of the same compound?
**A.** 55%

**Q.** What does the source list for `N#Cc1cnn2c(-c3cc(NC4CCC4)c(-c4nnc(N5CCN(CC6CCN(c7ccc(C8CCC(=O)NC8=O)cn7)CC6)CC5)s4)cn3)ccc2c1` (racemic) [Example 113, rac-7-[4-(cyclobutylamino)-5-(5-{4-[(1-{5-[(3R)-2,6-dioxopiperidin-3-yl]pyridin-2-yl}piperidin-4-yl)methyl]piperazin-1-yl}-1,3,4-thiadiazol-2-yl)pyridin-2-yl]pyrrolo[1,2-b]pyridazine-3-carbonitrile]?
**A.** DC50: 239 nM; Dmax (read-out: Dmax): 105%

**Q.** For `N#Cc1cnn2c(-c3cc(NC4CCOCC4)c(-c4nnc(N5CCN(CC6CCN(c7ccc(N8CCC(=O)NC8=O)cn7)CC6)CC5)s4)cn3)ccc2c1` [Example 28, 7-(5-{5-[4-({1-[5-(2,4-dioxo-1,3-diazinan-1-yl)pyridin-2-yl]piperidin-4-yl}methyl)piperazin-1-yl]-1,3,4-thiadiazol-2-yl}-4-[(oxan-4-yl)amino]pyridin-2-yl)pyrrolo[1,2-b]pyridazine-3-carbonitrile], which DC50 is on record?
**A.** 15 nM

**Q.** And the Dmax (read-out: Dmax)?
**A.** 107%

**Q.** `N#Cc1cnn2c(-c3cc(NC4CCOCC4)c(-c4nnc(N5CCN(C[C@H]6CC[C@H](Oc7ccc([C@@H]8CCC(=O)NC8=O)cn7)CC6)CC5)s4)cn3)ccc2c1` (racemic) [Example 107, 7-{4-[(oxan-4-yl)amino]-5-[5-(4-{[(1r,4r)-4-({5-[(3RS)-2,6-dioxopiperidin-3-yl]pyridin-2-yl}oxy)cyclohexyl]methyl}piperazin-1-yl)-1,3,4-thiadiazol-2-yl]pyridin-2-yl}pyrrolo[1,2-b]pyridazine-3-carbonitrile] was tested. Which DC50 did it give?
**A.** 65 nM

**Q.** What about the Dmax (read-out: Dmax) of the same compound?
**A.** 111%

**Q.** With `N#Cc1cnn2c(-c3cc(NC4CC4)c(-c4nnc(N5CCN(CC6CCN(c7ccc(C8CCC(=O)NC8=O)cn7)CC6)CC5)s4)cn3)ccc2c1` (racemic) [Example 67, rac-7-[4-(cyclopropylamino)-5-(5-{4-[(1-{5-[(3R)-2,6-dioxopiperidin-3-yl]pyridin-2-yl}piperidin-4-yl)methyl]piperazin-1-yl}-1,3,4-thiadiazol-2-yl)pyridin-2-yl]pyrrolo[1,2-b]pyridazine-3-carbonitrile] as the compound, how does the DC50 read?
**A.** 38 nM

**Q.** What about the Dmax (read-out: Dmax) of the same compound?
**A.** 85%

**Q.** With `N#Cc1cnn2c(-c3cc(NC4CCOCC4)c(-c4nnc(N5CCN(C[C@@H]6CCN(c7ccc([C@H]8CCC(=O)NC8=O)cn7)C6)CC5)s4)cn3)ccc2c1` (racemic) [Example 13, 7-{5-[5-(4-{[(3RS)-1-{5-[(3RS&)-2,6-dioxopiperidin-3-yl]pyridin-2-yl}pyrrolidin-3-yl]methyl}piperazin-1-yl)-1,3,4-thiadiazol-2-yl]-4-[(oxan-4-yl)amino]pyridin-2-yl}pyrrolo[1,2-b]pyridazine-3-carbonitrile] as the compound, how does the DC50 read?
**A.** 32 nM

**Q.** What about the Dmax (read-out: Dmax) of the same compound?
**A.** 66%

**Q.** What does the source list for `N#Cc1cnn2c(-c3cc(NC4CCOCC4)c(-c4nnc(C56CCC(CN7CCC(c8ccc(C9CCC(=O)NC9=O)cn8)CC7)(CC5)CC6)s4)cn3)ccc2c1` (racemic) [Example 23, rac-7-[5-(5-{4-[(4-{5-[(3R)-2,6-dioxopiperidin-3-yl]pyridin-2-yl}piperidin-1-yl)methyl]bicyclo[2.2.2]octan-1-yl}-1,3,4-thiadiazol-2-yl)-4-[(oxan-4-yl)amino]pyridin-2-yl]pyrrolo[1,2-b]pyridazine-3-carbonitrile]?
**A.** DC50: 18 nM; Dmax (read-out: Dmax): 90%

**Q.** What does the source list for `CCNc1cc(-c2ccc3cc(C#N)cnn23)ncc1-c1nnc(N2CCN(CC3CCN(c4ccc(C5CCC(=O)NC5=O)cc4)CC3)CC2)s1` (racemic) [Example 70, rac-7-[5-(5-{4-[(1-{4-[(3R)-2,6-dioxopiperidin-3-yl]phenyl}piperidin-4-yl)methyl]piperazin-1-yl}-1,3,4-thiadiazol-2-yl)-4-(ethylamino)pyridin-2-yl]pyrrolo[1,2-b]pyridazine-3-carbonitrile]?
**A.** DC50: 42 nM; Dmax (read-out: Dmax): 112%

**Q.** For `N#Cc1cnn2c(-c3cc(N[C@H]4CCOC4)c(-c4nnc(N5CCN(CC6CCN(c7ccc(C8CCC(=O)NC8=O)cn7)CC6)CC5)s4)cn3)ccc2c1` (mixture of isomers) [Example 92, 7-[5-(5-{4-[(1-{5-[(3RS)-2,6-dioxopiperidin-3-yl]pyridin-2-yl}piperidin-4-yl)methyl]piperazin-1-yl}-1,3,4-thiadiazol-2-yl)-4-{[(3S)-oxolan-3-yl]amino}pyridin-2-yl]pyrrolo[1,2-b]pyridazine-3-carbonitrile], which DC50 is on record?
**A.** 24 nM

**Q.** And the Dmax (read-out: Dmax)?
**A.** 114%

**Q.** Which DC50 does the source give for `N#Cc1cnn2c(-c3cc(NC4CCOCC4)c(-c4nnc(N5CCN(C[C@H]6[C@H]7CN(c8ccc(C9CCC(=O)NC9=O)cn8)C[C@@H]67)CC5)s4)cn3)ccc2c1` (mixture of isomers) [Example 100, 7-{5-[5-(4-{[(1RS&,5SR&,6RS&)-3-{5-[(3RS)-2,6-dioxopiperidin-3-yl]pyridin-2-yl}-3-azabicyclo[3.1.0]hexan-6-yl]methyl}piperazin-1-yl)-1,3,4-thiadiazol-2-yl]-4-[(oxan-4-yl)amino]pyridin-2-yl}pyrrolo[1,2-b]pyridazine-3-carbonitrile] here?
**A.** 20 nM

**Q.** And the Dmax?
**A.** 95%

**Q.** Which results are given for `N#Cc1cnn2c(-c3cc(NC4CCOCC4)c(-c4nnc(N5CCC6(CCN(CC7CCN(c8ccc(C9CCC(=O)NC9=O)cn8)CC7)CC6)CC5)s4)cn3)ccc2c1` (racemic) [Example 33, rac-7-[5-(5-{9-[(1-{5-[(3R)-2,6-dioxopiperidin-3-yl]pyridin-2-yl}piperidin-4-yl)methyl]-3,9-diazaspiro[5.5]undecan-3-yl}-1,3,4-thiadiazol-2-yl)-4-[(oxan-4-yl)amino]pyridin-2-yl]pyrrolo[1,2-b]pyridazine-3-carbonitrile]?
**A.** DC50: 45 nM; Dmax (read-out: Dmax): 101%

**Q.** Which results are given for `CC(C)Nc1cc(-c2ccc3cc(C#N)cnn23)ncc1-c1nnc(N2CCN(CC3CCN(c4ccc(C5CCC(=O)NC5=O)cn4)CC3)C3(CC3)C2)s1` (racemic) [Example 7, rac-7-[5-(5-{4-[(1-{5-[(3R)-2,6-dioxopiperidin-3-yl]pyridin-2-yl}piperidin-4-yl)methyl]-4,7-diazaspiro[2.5]octan-7-yl}-1,3,4-thiadiazol-2-yl)-4-[(propan-2-yl)amino]pyridin-2-yl]pyrrolo[1,2-b]pyridazine-3-carbonitrile]?
**A.** DC50: 129 nM; Dmax (read-out: Dmax): 17%

**Q.** Which results are given for `N#Cc1cnn2c(-c3cc(NC4CCOCC4)c(-c4nnc(N5CCN(CC6CCN(c7cc(C8CCC(=O)NC8=O)ccn7)CC6)CC5)s4)cn3)ccc2c1` (racemic) [Example 12, rac-7-[5-(5-{4-[(1-{4-[(3R)-2,6-dioxopiperidin-3-yl]pyridin-2-yl}piperidin-4-yl)methyl]piperazin-1-yl}-1,3,4-thiadiazol-2-yl)-4-[(oxan-4-yl)amino]pyridin-2-yl]pyrrolo[1,2-b]pyridazine-3-carbonitrile]?
**A.** DC50: 36 nM; Dmax (read-out: Dmax): 60%
